Measurements as given in US6872690B2, “Herbicidal 2-alkynyl-pyri (mi) dines” (WYETH, priority 2001, dated 2005).

What was measured:
Type in all cases: in vivo
Glycine max [1] = test: Pre-emergence test; conditions: 3 weeks after treatment
Procedure, shortened: (§1)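 Freshly sown seeds in horticultural loam were sprayed with compound dissolved in acetone with 0.4% w/w alkylphenol/ethylene oxide surfactant, diluted with water, at 0.013, 0.025, 0.100 or 0.400 kg a.i./ha in 900 L/ha. Untreated sown soil served as control; pots were rated 2 to 4 weeks after treatment.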

Ipomoea hederacea [2] = test: Pre-emergence test; conditions: 3 weeks after treatment
Procedure, shortened: as §1

Ambrosia artemisifolia [3] = test: Pre-emergence test; conditions: 3 weeks after treatment
Procedure, shortened: as §1

Cassia obtusifolia = test: Pre-emergence test; conditions: 3 weeks after treatment
Procedure, shortened: as §1

Zea mays [4] = test: Pre-emergence test; conditions: 3 weeks after treatment
Procedure, shortened: as §1

Echinochloa crus-galli [5] = test: Pre-emergence test; conditions: 3 weeks after treatment
Procedure, shortened: as §1

Alopecurus myosuroides [6] = test: Pre-emergence test; conditions: 3 weeks after treatment
Procedure, shortened: as §1

Matricaria inodora [7] = test: Pre-emergence test; conditions: 3 weeks after treatment
Procedure, shortened: as §1

Abutilon theophrasti [8] = test: Pre-emergence test; conditions: 3 weeks after treatment
Procedure, shortened: as §1

Setaria viridis [9] = test: Pre-emergence test; conditions: 3 weeks after treatment
Procedure, shortened: as §1

Triticum aestivum [10] = test: Pre-emergence test; conditions: 3 weeks after treatment
Procedure, shortened: as §1

Glycine max [11] = test: Post-emergence herbicidal activity test; conditions: 2-4 weeks after treatment
Procedure, shortened: (§2)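 Greenhouse-grown seedlings treated by foliar spray with aqueous dilutions of acetone solutions, dose range approximately 0.025 to 0.4 kg/ha of compound per pot. Ratings assigned 2 to 4 weeks post-application.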

Ipomoea hederacea [12] = test: Post-emergence herbicidal activity test; conditions: 2-4 weeks after treatment
Procedure, shortened: as §2

Ambrosia artemisifolia [13] = test: Post-emergence herbicidal activity test; conditions: 2-4 weeks after treatment
Procedure, shortened: as §2

Zea mays [14] = test: Post-emergence herbicidal activity test; conditions: 2-4 weeks after treatment
Procedure, shortened: as §2

Echinochloa crus-galli [15] = test: Post-emergence herbicidal activity test; conditions: 2-4 weeks after treatment
Procedure, shortened: as §2

Alopecurus myosuroides [16] = test: Post-emergence herbicidal activity test; conditions: 2-4 weeks after treatment
Procedure, shortened: as §2

Matricaria inodora [17] = test: Post-emergence herbicidal activity test; conditions: 2-4 weeks after treatment
Procedure, shortened: as §2

Abutilon theophrasti [18] = test: Post-emergence herbicidal activity test; conditions: 2-4 weeks after treatment
Procedure, shortened: as §2

Setaria viridis [19] = test: Post-emergence herbicidal activity test; conditions: 2-4 weeks after treatment
Procedure, shortened: as §2

Triticum aestivum [20] = test: Post-emergence herbicidal activity test; conditions: 2-4 weeks after treatment
Procedure, shortened: as §2

Cc1cc(C#Cc2ccc(F)cc2)nc(Oc2cc(C(F)(F)F)nn2C)c1 [Example 2, 4-methyl-6-(4-fluorophenylethynyl)-2-(1-methyl-3-trifluoromethylpyrazol-5-yloxy)-pyridine]
Assessment (pre-emergence application) GLXMA (Glycine max [1]; 0.013 kg/ha): 0 (0-No effect)
Assessment (pre-emergence application) GLXMA (Glycine max [1]; 0.025 kg/ha): 1 (1-Trace effect)
Assessment (pre-emergence application) GLXMA (Glycine max [1]; 0.100 kg/ha): 2 (2-Slight effect)
Assessment (pre-emergence application) GLXMA (Glycine max [1]; 0.400 kg/ha): 3 (3-Moderate effect)
Assessment (pre-emergence application) IPOHE (Ipomoea hederacea [2]; 0.013 kg/ha): 0 (0-No effect)
Assessment (pre-emergence application) IPOHE (Ipomoea hederacea [2]; 0.025 kg/ha): 1 (1-Trace effect)
Assessment (pre-emergence application) IPOHE (Ipomoea hederacea [2]; 0.100 kg/ha): 2 (2-Slight effect)
Assessment (pre-emergence application) IPOHE (Ipomoea hederacea [2]; 0.400 kg/ha): 6 (6-Herbicidal effect)
Assessment (pre-emergence application) MBEL (Ambrosia artemisifolia [3]; 0.013 kg/ha): 0 (0-No effect)
Assessment (pre-emergence application) MBEL (Ambrosia artemisifolia [3]; 0.025 kg/ha): 2 (2-Slight effect)
Assessment (pre-emergence application) MBEL (Ambrosia artemisifolia [3]; 0.100 kg/ha): 6 (6-Herbicidal effect)
Assessment (pre-emergence application) MBEL (Ambrosia artemisifolia [3]; 0.400 kg/ha): 9 (9-Complete kill)
Assessment (pre-emergence application) CASOB (Cassia obtusifolia; 0.013 kg/ha): 0 (0-No effect)
Assessment (pre-emergence application) CASOB (Cassia obtusifolia; 0.025 kg/ha): 1 (1-Trace effect)
Assessment (pre-emergence application) CASOB (Cassia obtusifolia; 0.100 kg/ha): 3 (3-Moderate effect)
Assessment (pre-emergence application) CASOB (Cassia obtusifolia; 0.400 kg/ha): 7 (7-Good herbicidal effect)
Assessment (pre-emergence application) ZEAMX (Zea mays [4]; 0.013 kg/ha): 0 (0-No effect)
Assessment (pre-emergence application) ZEAMX (Zea mays [4]; 0.025 kg/ha): 0 (0-No effect)
Assessment (pre-emergence application) ZEAMX (Zea mays [4]; 0.100 kg/ha): 1 (1-Trace effect)
Assessment (pre-emergence application) ZEAMX (Zea mays [4]; 0.400 kg/ha): 2 (2-Slight effect)
Assessment (pre-emergence application) ECHCG (Echinochloa crus-galli [5]; 0.013 kg/ha): 1 (1-Trace effect)
Assessment (pre-emergence application) ECHCG (Echinochloa crus-galli [5]; 0.025 kg/ha): 2 (2-Slight effect)
Assessment (pre-emergence application) ECHCG (Echinochloa crus-galli [5]; 0.100 kg/ha): 6 (6-Herbicidal effect)
Assessment (pre-emergence application) ECHCG (Echinochloa crus-galli [5]; 0.400 kg/ha): 7 (7-Good herbicidal effect)
Assessment (pre-emergence application) ALOMY (Alopecurus myosuroides [6]; 0.013 kg/ha): 1 (1-Trace effect)
Assessment (pre-emergence application) ALOMY (Alopecurus myosuroides [6]; 0.025 kg/ha): 2 (2-Slight effect)
Assessment (pre-emergence application) ALOMY (Alopecurus myosuroides [6]; 0.100 kg/ha): 5 (5-Definite injury)
Assessment (pre-emergence application) ALOMY (Alopecurus myosuroides [6]; 0.400 kg/ha): 8 (8-Approaching complete kill)
Assessment (pre-emergence application) MATIN (Matricaria inodora [7]; 0.013 kg/ha): 1 (1-Trace effect)
Assessment (pre-emergence application) MATIN (Matricaria inodora [7]; 0.025 kg/ha): 5 (5-Definite injury)
Assessment (pre-emergence application) MATIN (Matricaria inodora [7]; 0.100 kg/ha): 9 (9-Complete kill)
Assessment (pre-emergence application) MATIN (Matricaria inodora [7]; 0.400 kg/ha): 9 (9-Complete kill)
Assessment (pre-emergence application) ABUTH (Abutilon theophrasti [8]; 0.013 kg/ha): 0 (0-No effect)
Assessment (pre-emergence application) ABUTH (Abutilon theophrasti [8]; 0.025 kg/ha): 1 (1-Trace effect)
Assessment (pre-emergence application) ABUTH (Abutilon theophrasti [8]; 0.100 kg/ha): 2 (2-Slight effect)
Assessment (pre-emergence application) ABUTH (Abutilon theophrasti [8]; 0.400 kg/ha): 3 (3-Moderate effect)
Assessment (pre-emergence application) SETVI (Setaria viridis [9]; 0.013 kg/ha): 3 (3-Moderate effect)
Assessment (pre-emergence application) SETVI (Setaria viridis [9]; 0.025 kg/ha): 4 (4-Injury)
Assessment (pre-emergence application) SETVI (Setaria viridis [9]; 0.100 kg/ha): 8 (8-Approaching complete kill)
Assessment (pre-emergence application) SETVI (Setaria viridis [9]; 0.400 kg/ha): 9 (9-Complete kill)
Assessment (pre-emergence application) TRZWA (Triticum aestivum [10]; 0.013 kg/ha): 0 (0-No effect)
Assessment (pre-emergence application) TRZWA (Triticum aestivum [10]; 0.025 kg/ha): 0 (0-No effect)
Assessment (pre-emergence application) TRZWA (Triticum aestivum [10]; 0.100 kg/ha): 2 (2-Slight effect)
Assessment (pre-emergence application) TRZWA (Triticum aestivum [10]; 0.400 kg/ha): 4 (4-Injury)
Post-emergence application GLXMA (Glycine max [11]; 0.025 kg/ha): 4 (4-Injury)
Post-emergence application GLXMA (Glycine max [11]; 0.100 kg/ha): 5 (5-Definite injury)
Post-emergence application GLXMA (Glycine max [11]; 0.400 kg/ha): 7 (7-Good herbicidal effect)
Post-emergence application IPOHE (Ipomoea hederacea [12]; 0.025 kg/ha): 7 (7-Good herbicidal effect)
Post-emergence application IPOHE (Ipomoea hederacea [12]; 0.100 kg/ha): 7 (7-Good herbicidal effect)
Post-emergence application IPOHE (Ipomoea hederacea [12]; 0.400 kg/ha): 9 (9-Complete kill)
Post-emergence application AMBEL (Ambrosia artemisifolia [13]; 0.025 kg/ha): 2 (2-Slight effect)
Post-emergence application AMBEL (Ambrosia artemisifolia [13]; 0.100 kg/ha): 5 (5-Definite injury)
Post-emergence application AMBEL (Ambrosia artemisifolia [13]; 0.400 kg/ha): 7 (7-Good herbicidal effect)
Post-emergence application ZEAMX (Zea mays [14]; 0.025 kg/ha): 1 (1-Trace effect)
Post-emergence application ZEAMX (Zea mays [14]; 0.100 kg/ha): 2 (2-Slight effect)
Post-emergence application ZEAMX (Zea mays [14]; 0.400 kg/ha): 2 (2-Slight effect)
Post-emergence application ECHCG (Echinochloa crus-galli [15]; 0.025 kg/ha): 3 (3-Moderate effect)
Post-emergence application ECHCG (Echinochloa crus-galli [15]; 0.100 kg/ha): 4 (4-Injury)
Post-emergence application ECHCG (Echinochloa crus-galli [15]; 0.400 kg/ha): 8 (8-Approaching complete kill)
Post-emergence application ALOMY (Alopecurus myosuroides [16]; 0.025 kg/ha): 2 (2-Slight effect)
Post-emergence application ALOMY (Alopecurus myosuroides [16]; 0.100 kg/ha): 3 (3-Moderate effect)
Post-emergence application ALOMY (Alopecurus myosuroides [16]; 0.400 kg/ha): 5 (5-Definite injury)
Post-emergence application MATIN (Matricaria inodora [17]; 0.025 kg/ha): 2 (2-Slight effect)
Post-emergence application MATIN (Matricaria inodora [17]; 0.100 kg/ha): 5 (5-Definite injury)
Post-emergence application MATIN (Matricaria inodora [17]; 0.400 kg/ha): 8 (8-Approaching complete kill)
Post-emergence application ABUTH (Abutilon theophrasti [18]; 0.025 kg/ha): 2 (2-Slight effect)
Post-emergence application ABUTH (Abutilon theophrasti [18]; 0.100 kg/ha): 6 (6-Herbicidal effect)
Post-emergence application ABUTH (Abutilon theophrasti [18]; 0.400 kg/ha): 8 (8-Approaching complete kill)
Post-emergence application SETVI (Setaria viridis [19]; 0.025 kg/ha): 4 (4-Injury)
Post-emergence application SETVI (Setaria viridis [19]; 0.100 kg/ha): 7 (7-Good herbicidal effect)
Post-emergence application SETVI (Setaria viridis [19]; 0.400 kg/ha): 9 (9-Complete kill)
Post-emergence application TRZWA (Triticum aestivum [20]; 0.025 kg/ha): 2 (2-Slight effect)
Post-emergence application TRZWA (Triticum aestivum [20]; 0.100 kg/ha): 2 (2-Slight effect)
Post-emergence application TRZWA (Triticum aestivum [20]; 0.400 kg/ha): 3 (3-Moderate effect)
